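Each compound was tested at five concentrations against cells in 96-well plates for 48 hours. At the GI50, growth is halved. TGI: total growth inhibition.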
tested on: SF-268 CNS; experiment: inhibition of tumour cell growth, NCI panel, 48 h

| SMILES | TGI |
| --- | --- |
| O=C(NN1C(=O)CSC1c1ccc(Cl)c(Cl)c1)c1ccncc1 (stereo not given) | > 100 µM |
| O=c1cc(-c2ccccc2F)[nH]c2cc3c(cc12)OCO3 | > 100 µM |
| CC(C)(C)c1ccc2c(c1)OCc1n[nH]c(n1)COc1cc(C(C)(C)C)ccc1OCCOCCO2 | 17.3 µM |
| COC1OC2COC(C)(C)OC2C2OC(C)(C)OC12 (stereo not given) | > 100 µM |
| CCNC(=S)N/N=C/c1ccccn1 | 7.56 µM |
| COc1ccc(CCCCl)c(C2=NCCc3ccccc32)c1 | > 100 µM |
| O=C(CN=C(CN(c1ccccc1)c1ccccc1)Oc1c(Cl)cc(Cl)cc1Cl)n1cnc2ccccc21 | > 100 µM |
| C=C1CC=CC(C)(C)C1C/C=C(\C)C(O)CBr (stereo not given) | > 100 µM |
| CCOC(=O)C(C)NC(=O)N(C)C12CC3CC(CC(C3)C1)C2 (stereo not given) | > 500 µM |
| O=c1c2cc3c(=O)n(CCc4ccccc4CO)c(=O)c3cc2c(=O)n1CCc1ccccc1CO | > 100 µM |
| CCc1cc(=O)n(/C(C)=C/c2ccccc2)n1C | > 100 µM |
| C/C(=N\Nc1nc2ccccc2s1)c1cccnn1 | 20.1 µM |
| FC(F)=C(c1ccc(-c2ccc(Cl)cc2)cc1)C(F)(F)F | 56.3 µM |
| COC(=O)[C@H]1C=C[C@H](OC2OC(COC(C)=O)C(OC(C)=O)C(OC(C)=O)C2OC(C)=O)n2c(=O)n(-c3ccccc3)c(=O)n21 (stereo not given in full) | > 47.1 µM |
| N/C(CSCCSC/C(N)=N/O)=N\O | > 100 µM |

tested on: NCI/ADR-RES ovarian; experiment: inhibition of tumour cell growth, NCI panel, 48 h

| SMILES | TGI | GI50 |
| --- | --- | --- |
| CCOP(=O)(OCC)c1cc(-c2ccccc2)ccc1N | > 100 µM |  |
| CC1(C)OC(CCO)CN1C(=O)OCc1ccccc1 (stereo not given) | > 100 µM |  |
| COc1cc2c(cc1OCCCOc1cc3c(cc1OC)C(=O)N1CCC[C@H]1CN3)N=C[C@@H]1CCCN1C2=O | 24.8 µM |  |
| CCOC(=O)C1=C(C)NC(=O)N([N+](=O)[O-])C1c1ccccc1C(F)(F)F (stereo not given) | > 100 µM |  |
| O=c1c(Cc2ccccc2)c(-c2ccccc2)[nH]n1C1=NCCN1 | > 100 µM |  |
| CCOC(=O)Cc1nn2c(=O)cc(C)nc2s1 | > 100 µM |  |
| COP(=O)(CC(=O)C1OC(OCc2ccccc2)C(OCc2ccccc2)C(OCc2ccccc2)C1OCc1ccccc1)OC (stereo not given) | 90.2 µM |  |
| CN1c2ccccc2C(=O)NC12CCN(CC1COc3ccccc3O1)CC2 (stereo not given) | > 100 µM |  |
| CCOC1NC(=O)c2ccccc21 (stereo not given) | > 100 µM |  |
| Cc1cn(C2CC(OC(c3ccccc3)(c3ccccc3)c3ccccc3)C(COC(c3ccccc3)(c3ccccc3)c3ccccc3)O2)c(=O)[nH]c1=O (stereo not given) | > 100 µM |  |
| COc1cc(CCCOC2OC(COC3OCC(O)C(O)C3O)C(O)C(O)C2O)cc2cc(-c3ccc4c(c3)OCO4)oc12 (stereo not given) | > 175 µM |  |
| O=C1c2c(c3c4ccc(Br)cc4oc3c3[nH]c4ccccc4c23)C(=O)N1O | > 100 µM | 2.64 µM |
| O=CN(O)CC(=O)O | > 100 µM |  |
| C(=N/Nc1ccc(-c2nc3ccccc3[nH]2)cc1)/c1c(-c2ccccc2)[nH]c2ccccc12 | 17.4 µM |  |
| CC1OC(n2cc(F)c(=O)[nH]c2=O)C(O[Si](C)(C)C(C)(C)C)C1O[Si](C)(C)C(C)(C)C (stereo not given) | 27.7 µM |  |
| CCOC(=O)c1c(NC(=S)Nc2ccc(C)cc2)sc2c1CCN(C)C2 | > 100 µM |  |
| Cc1ccc(-n2cc(-c3ccc(Cl)cc3)c3c2N=CN2NC(c4ccco4)=NC32)cc1 (stereo not given) | 86.6 µM |  |
| c1ccc(-c2ccc(N=NN3CCCC3)cc2)cc1 | > 100 µM |  |
| COc1cc2nc(-c3c(F)cccc3F)n(Cc3c(F)cccc3F)c2cc1Cc1c(F)cccc1F | > 100 µM |  |
| CC(C)Cc1c(C#N)c(C#N)c(N)n1Cc1ccccc1 | > 100 µM |  |

| SMILES | TGI | GI50 |
| --- | --- | --- |
| NS(=O)(=O)c1nnc(NSc2ccc([N+](=O)[O-])cc2)s1 | > 100 µM |  |
| Nc1nc(Nc2ccc(OCc3cccc(F)c3)cc2)c2c(n1)[nH]c1ccc(O)cc12 | 32 µM | 9.46 µM |
| CC1=NC(C)(C)N(O)C1(C)C | > 100 µM |  |
| O=c1oc2ccccc2c2nc3ccccc3cc12 | > 100 µM |  |
| CCCC[C@@H]1CCN2C[C@@H](O)[C@@H](O)[C@H]2[C@@H]1O | > 100 µM |  |
| CCOC(=O)c1csc(NC(=O)CCCC#N)n1 | > 100 µM |  |
| O=c1cc(-c2ccccc2F)[nH]c2cc3c(cc12)OCO3 | 0.246 µM |  |
| CC(C)(C)c1ccc2c(c1)OCc1n[nH]c(n1)COc1cc(C(C)(C)C)ccc1OCCOCCO2 | 12.4 µM |  |
| COC1OC2COC(C)(C)OC2C2OC(C)(C)OC12 (stereo not given) | > 100 µM |  |
| CCNC(=S)N/N=C/c1ccccn1 | > 100 µM |  |
| COc1ccc(CCCCl)c(C2=NCCc3ccccc32)c1 | > 100 µM |  |
| O=C(CN=C(CN(c1ccccc1)c1ccccc1)Oc1c(Cl)cc(Cl)cc1Cl)n1cnc2ccccc21 | > 100 µM |  |
| C=C1CC=CC(C)(C)C1C/C=C(\C)C(O)CBr (stereo not given) | 63.2 µM |  |
| CCOC(=O)C(C)NC(=O)N(C)C12CC3CC(CC(C3)C1)C2 (stereo not given) | 424 µM |  |
| CCc1cc(=O)n(/C(C)=C/c2ccccc2)n1C | > 100 µM |  |
| C/C(=N\Nc1nc2ccccc2s1)c1cccnn1 | 8.69 µM |  |
| FC(F)=C(c1ccc(-c2ccc(Cl)cc2)cc1)C(F)(F)F | 63.8 µM |  |
| COC(=O)[C@H]1C=C[C@H](OC2OC(COC(C)=O)C(OC(C)=O)C(OC(C)=O)C2OC(C)=O)n2c(=O)n(-c3ccccc3)c(=O)n21 (stereo not given in full) | 61.8 µM |  |
| N/C(CSCCSC/C(N)=N/O)=N\O | > 100 µM |  |

tested on: UO-31 renal; experiment: inhibition of tumour cell growth, NCI panel, 48 h

| SMILES | TGI | GI50 |
| --- | --- | --- |
| CCOP(=O)(OCC)c1cc(-c2ccccc2)ccc1N | > 100 µM |  |
| CC1(C)OC(CCO)CN1C(=O)OCc1ccccc1 (stereo not given) | > 100 µM |  |
| COc1cc2c(cc1OCCCOc1cc3c(cc1OC)C(=O)N1CCC[C@H]1CN3)N=C[C@@H]1CCCN1C2=O | > 100 µM |  |
| CCOC(=O)C1=C(C)NC(=O)N([N+](=O)[O-])C1c1ccccc1C(F)(F)F (stereo not given) | > 100 µM |  |
| O=c1c(Cc2ccccc2)c(-c2ccccc2)[nH]n1C1=NCCN1 | > 100 µM |  |
| CCOC(=O)Cc1nn2c(=O)cc(C)nc2s1 | > 100 µM |  |
| COP(=O)(CC(=O)C1OC(OCc2ccccc2)C(OCc2ccccc2)C(OCc2ccccc2)C1OCc1ccccc1)OC (stereo not given) | 7.1 µM |  |
| CN1c2ccccc2C(=O)NC12CCN(CC1COc3ccccc3O1)CC2 (stereo not given) | > 100 µM |  |
| CCOC1NC(=O)c2ccccc21 (stereo not given) | > 100 µM |  |
| Cc1cn(C2CC(OC(c3ccccc3)(c3ccccc3)c3ccccc3)C(COC(c3ccccc3)(c3ccccc3)c3ccccc3)O2)c(=O)[nH]c1=O (stereo not given) | > 100 µM |  |
| CCOC(=O)C(NC(=O)c1ccc(N=NN(C)C)cc1)C(C)C (stereo not given) | > 100 µM |  |
| COc1cc(CCCOC2OC(COC3OCC(O)C(O)C3O)C(O)C(O)C2O)cc2cc(-c3ccc4c(c3)OCO4)oc12 (stereo not given) | > 175 µM |  |
| O=CN(O)CC(=O)O | > 100 µM |  |
| C(=N/Nc1ccc(-c2nc3ccccc3[nH]2)cc1)/c1c(-c2ccccc2)[nH]c2ccccc12 | > 100 µM |  |
| CC1OC(n2cc(F)c(=O)[nH]c2=O)C(O[Si](C)(C)C(C)(C)C)C1O[Si](C)(C)C(C)(C)C (stereo not given) | 25.4 µM |  |
| CCOC(=O)c1c(NC(=S)Nc2ccc(C)cc2)sc2c1CCN(C)C2 | > 100 µM |  |
| Cc1ccc(-n2cc(-c3ccc(Cl)cc3)c3c2N=CN2NC(c4ccco4)=NC32)cc1 (stereo not given) | 47.5 µM |  |
| c1ccc([P+](Cc2csnn2)(c2ccccc2)c2ccccc2)cc1 | > 100 µM |  |
| c1ccc(-c2ccc(N=NN3CCCC3)cc2)cc1 | > 100 µM |  |
| COc1cc2nc(-c3c(F)cccc3F)n(Cc3c(F)cccc3F)c2cc1Cc1c(F)cccc1F | > 100 µM |  |
| CC(C)Cc1c(C#N)c(C#N)c(N)n1Cc1ccccc1 | > 100 µM |  |

| SMILES | TGI | GI50 |
| --- | --- | --- |
| NS(=O)(=O)c1nnc(NSc2ccc([N+](=O)[O-])cc2)s1 | > 100 µM |  |
| Nc1nc(Nc2ccc(OCc3cccc(F)c3)cc2)c2c(n1)[nH]c1ccc(O)cc12 | 4.12 µM | 1.75 µM |
| CCC1(CC)C(=O)NC(=S)N=C1N | > 100 µM |  |
| CC1=NC(C)(C)N(O)C1(C)C | > 100 µM |  |
| O=c1oc2ccccc2c2nc3ccccc3cc12 | > 100 µM |  |
| CCCC[C@@H]1CCN2C[C@@H](O)[C@@H](O)[C@H]2[C@@H]1O | > 100 µM |  |
| O=C(NN1C(=O)CSC1c1ccc(Cl)c(Cl)c1)c1ccncc1 (stereo not given) | > 100 µM |  |
| CCOC(=O)c1csc(NC(=O)CCCC#N)n1 | > 100 µM |  |
| O=c1cc(-c2ccccc2F)[nH]c2cc3c(cc12)OCO3 | > 100 µM |  |
| CC(C)(C)c1ccc2c(c1)OCc1n[nH]c(n1)COc1cc(C(C)(C)C)ccc1OCCOCCO2 | 13.1 µM |  |
| COC1OC2COC(C)(C)OC2C2OC(C)(C)OC12 (stereo not given) | > 100 µM |  |
| CCNC(=S)N/N=C/c1ccccn1 | 23.6 µM |  |
| COc1ccc(CCCCl)c(C2=NCCc3ccccc32)c1 | > 100 µM |  |
| C=C1CC=CC(C)(C)C1C/C=C(\C)C(O)CBr (stereo not given) | > 100 µM |  |
| CCOC(=O)C(C)NC(=O)N(C)C12CC3CC(CC(C3)C1)C2 (stereo not given) | 492 µM |  |
| O=c1c2cc3c(=O)n(CCc4ccccc4CO)c(=O)c3cc2c(=O)n1CCc1ccccc1CO | > 100 µM |  |
| CCc1cc(=O)n(/C(C)=C/c2ccccc2)n1C | > 100 µM |  |
| C/C(=N\Nc1nc2ccccc2s1)c1cccnn1 | 71.2 µM |  |
| FC(F)=C(c1ccc(-c2ccc(Cl)cc2)cc1)C(F)(F)F | 31 µM |  |
| COC(=O)[C@H]1C=C[C@H](OC2OC(COC(C)=O)C(OC(C)=O)C(OC(C)=O)C2OC(C)=O)n2c(=O)n(-c3ccccc3)c(=O)n21 (stereo not given in full) | 4.96 µM |  |
| N/C(CSCCSC/C(N)=N/O)=N\O | > 100 µM |  |

tested on: KM12 colon; experiment: inhibition of tumour cell growth, NCI panel, 48 h

| SMILES | TGI |
| --- | --- |
| CCOP(=O)(OCC)c1cc(-c2ccccc2)ccc1N | > 100 µM |
| CC1(C)OC(CCO)CN1C(=O)OCc1ccccc1 (stereo not given) | > 100 µM |
| COc1cc2c(cc1OCCCOc1cc3c(cc1OC)C(=O)N1CCC[C@H]1CN3)N=C[C@@H]1CCCN1C2=O | 0.327 µM |
| O=c1c(Cc2ccccc2)c(-c2ccccc2)[nH]n1C1=NCCN1 | > 100 µM |
| CCOC(=O)Cc1nn2c(=O)cc(C)nc2s1 | > 100 µM |
| COP(=O)(CC(=O)C1OC(OCc2ccccc2)C(OCc2ccccc2)C(OCc2ccccc2)C1OCc1ccccc1)OC (stereo not given) | 37.6 µM |

Reference: PubChem BioAssay (NCI)
